Assay results published in patent US6319897A, “Peptides which inhibit complement activation” (priority 1999, dated 2001).
Where a SMILES comes first, the peptide text is derived from it. Bridges are numbered along the chain shown (N, C = ends). The star is where a group is joined. Cam = NC(=O)C*

The molecules below were run on complement (assay: Complement-mediated hemolytic assay (pathway not stated)). Conditions: not given.
Assay type: cell-based
Procedure: Inhibition of classical and alternative pathway activity by the peptides was measured. To determine the effect of peptides on the classical pathway, various concentrations of peptide were mixed with 11 μl of normal human serum (NHS, diluted 1:10 in GVB^++) and 5 μl of sheep erythrocytes coated with antibodies (EA) (1×10^9 /ml) and GVB^++ was added to give a total volume of 250 μl. The reaction mixture was incubated at 37° C. for 1 hour and centrifuged. The percentage of lysis was determined by measuring the optical density of the supernatant at 414 nm. The effect of peptides on the alternative pathway was determined by measuring the lysis of rabbit erythrocytes (Er) in NHS. Various concentrations of peptide were mixed with 5 μl of NHS, 5 μl of MgEGTA and 10 μl of Er (1×10^9 /ml) and brought to a final volume of 100 μl in GVB. The reaction mixture was incubated at 37° C. for 20 minutes and stopped by adding 200 μl of GVBE. After centrifugation, hemolysis was determined at 414 nm. The percentage of lysis was normalized by considering 100% lysis to be equal to the lysis occurring in the absence of the peptide.

Molecule | activity in hemolytic assay
ICVVQDWGHHRCTAGHYY [SEQ ID NO: 23, peptide of the invention containing tyrosine residues at its C-terminus] | equal activity to Peptide IV

What follows are molecules tested against alternative pathway of complement activation (Homo sapiens, UniProt P01024) (assay: Hemolytic assay, alternative pathway: lysis of rabbit erythrocytes in normal human serum with MgEGTA). Conditions: read-out: ALTERNATIVE PATHWAY IC50.
Sequence of alternative pathway of complement activation (P01024 23-1663): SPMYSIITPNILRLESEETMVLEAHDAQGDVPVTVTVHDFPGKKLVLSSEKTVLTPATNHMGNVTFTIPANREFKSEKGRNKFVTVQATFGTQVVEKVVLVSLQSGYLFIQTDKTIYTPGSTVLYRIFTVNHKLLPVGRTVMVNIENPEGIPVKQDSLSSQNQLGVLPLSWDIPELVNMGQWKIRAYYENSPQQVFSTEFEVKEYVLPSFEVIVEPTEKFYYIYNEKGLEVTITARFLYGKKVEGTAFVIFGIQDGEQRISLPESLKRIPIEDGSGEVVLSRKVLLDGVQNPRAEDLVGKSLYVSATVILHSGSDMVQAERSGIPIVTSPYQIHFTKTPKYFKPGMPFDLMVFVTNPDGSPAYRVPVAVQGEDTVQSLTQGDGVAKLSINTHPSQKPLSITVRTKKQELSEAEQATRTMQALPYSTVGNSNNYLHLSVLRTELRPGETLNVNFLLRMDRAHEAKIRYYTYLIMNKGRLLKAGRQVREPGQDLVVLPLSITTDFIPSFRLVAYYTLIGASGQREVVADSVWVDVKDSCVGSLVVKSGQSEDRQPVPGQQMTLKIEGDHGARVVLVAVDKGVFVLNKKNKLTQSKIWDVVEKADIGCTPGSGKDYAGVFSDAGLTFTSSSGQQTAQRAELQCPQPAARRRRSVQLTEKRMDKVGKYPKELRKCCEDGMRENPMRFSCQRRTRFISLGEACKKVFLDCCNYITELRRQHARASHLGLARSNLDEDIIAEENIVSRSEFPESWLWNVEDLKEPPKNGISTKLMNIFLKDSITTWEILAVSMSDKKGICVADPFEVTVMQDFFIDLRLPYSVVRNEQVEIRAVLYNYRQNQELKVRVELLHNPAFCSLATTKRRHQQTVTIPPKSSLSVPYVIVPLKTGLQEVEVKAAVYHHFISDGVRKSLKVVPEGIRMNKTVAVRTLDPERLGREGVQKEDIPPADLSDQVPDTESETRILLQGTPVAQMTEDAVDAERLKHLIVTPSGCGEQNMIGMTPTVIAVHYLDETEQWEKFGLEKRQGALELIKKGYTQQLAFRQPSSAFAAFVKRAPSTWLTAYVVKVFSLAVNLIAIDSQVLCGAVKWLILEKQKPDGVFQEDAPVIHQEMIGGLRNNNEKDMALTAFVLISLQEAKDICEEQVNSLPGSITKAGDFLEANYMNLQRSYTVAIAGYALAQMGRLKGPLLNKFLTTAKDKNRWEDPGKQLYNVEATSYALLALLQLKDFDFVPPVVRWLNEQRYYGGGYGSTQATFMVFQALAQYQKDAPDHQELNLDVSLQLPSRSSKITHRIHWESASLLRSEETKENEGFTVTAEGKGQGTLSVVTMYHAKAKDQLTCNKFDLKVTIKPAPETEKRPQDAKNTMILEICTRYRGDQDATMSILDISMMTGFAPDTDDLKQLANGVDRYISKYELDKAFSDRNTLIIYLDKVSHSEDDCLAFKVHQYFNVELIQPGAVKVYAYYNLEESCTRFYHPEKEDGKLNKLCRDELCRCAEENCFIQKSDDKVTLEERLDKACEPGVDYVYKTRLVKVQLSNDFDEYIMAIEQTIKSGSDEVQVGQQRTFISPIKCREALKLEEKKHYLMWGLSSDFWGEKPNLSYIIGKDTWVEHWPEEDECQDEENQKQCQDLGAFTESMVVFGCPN
Assay type: cell-based
Procedure: Inhibition of the alternative pathway was measured by using rabbit erythrocytes in the presence of MgEGTA (FIG. 3A); inhibition of lysis of antibody-coated sheep erythrocytes was used as an indicator of inhibition of the classical pathway (FIG. 3B).
Inhibition of classical and alternative pathway activity by the peptides was measured. […] The reaction mixture was incubated at 37° C. for 1 hour and centrifuged. […] The effect of peptides on the alternative pathway was determined by measuring the lysis of rabbit erythrocytes (Er) in NHS. Various concentrations of peptide were mixed with 5 μl of NHS, 5 μl of MgEGTA and 10 μl of Er (1×10^9 /ml) and brought to a final volume of 100 μl in GVB. The reaction mixture was incubated at 37° C. for 20 minutes and stopped by adding 200 μl of GVBE. […] The percentage of lysis was normalized by considering 100% lysis to be equal to the lysis occurring in the absence of the peptide.

Molecule | IC50 [µM]
CC[C@H](C)[C@H](N)C(=O)N[C@@H](CSCC(N)=O)C(=O)N[C@H](C(=O)N[C@H](C(=O)N[C@@H](CCC(N)=O)C(=O)N[C@@H](CC(=O)O)C(=O)N[C@@H](Cc1c[nH]c2ccccc12)C(=O)NCC(=O)N[C@@H](Cc1c[nH]cn1)C(=O)N[C@@H](Cc1c[nH]cn1)C(=O)N[C@@H](CCCNC(=N)N)C(=O)N[C@@H](CSCC(N)=O)C(=O)N[C@H](C(=O)N[C@@H](C)C(=O)NCC(=O)N[C@@H](Cc1c[nH]cn1)C(=O)N[C@@H](CCSC)C(=O)N[C@@H](C)C(=O)N[C@@H](CC(N)=O)C(=O)N[C@@H](CC(C)C)C(=O)N[C@H](C(=O)N[C@@H](CO)C(=O)N[C@@H](Cc1c[nH]cn1)C(=O)N[C@@H](C)C(=O)N[C@@H](CO)C(=O)N[C@@H](C)C(=O)N[C@H](C(N)=O)[C@@H](C)CC)[C@@H](C)O)[C@@H](C)O)C(C)C)C(C)C [II] (H-IC(Cam)VVQDWGHHRC(Cam)TAGHMANLTSHASAI-NH2) | > 300
C[C@@H](O)[C@H](NC(=O)[C@@H]1CSSC[C@H](N)C(=O)N[C@@H](CCC(N)=O)C(=O)N[C@@H](CC(=O)O)C(=O)N[C@@H](Cc2c[nH]c3ccccc23)C(=O)NCC(=O)N[C@@H](Cc2c[nH]cn2)C(=O)N[C@@H](Cc2c[nH]cn2)C(=O)N[C@@H](CCCNC(=N)N)C(=O)N1)C(N)=O [XI] (H-CQDWGHHRCT-NH2; disulfide 1-9) | > 600
C[C@@H](O)[C@H](NC(=O)[C@@H]1CSSC[C@H](N)C(=O)N[C@@H](Cc2c[nH]c3ccccc23)C(=O)NCC(=O)N[C@@H](Cc2c[nH]cn2)C(=O)N[C@@H](Cc2c[nH]cn2)C(=O)N[C@@H](CCCNC(=N)N)C(=O)N1)C(N)=O [IX] (H-CWGHHRCT-NH2; disulfide 1-7) | > 600
CC(C)[C@@H]1NC(=O)[C@H](C(C)C)NC(=O)[C@@H](N)CSSC[C@@H](C(N)=O)NC(=O)[C@H](Cc2c[nH]cn2)NC(=O)CNC(=O)[C@H](Cc2c[nH]c3ccccc23)NC(=O)[C@H](CC(=O)O)NC(=O)[C@H](CCC(N)=O)NC1=O [XIV] (H-CVVQDWGHC-NH2; disulfide 1-9) | > 600
CC(C)[C@@H]1NC(=O)[C@H](C(C)C)NC(=O)[C@@H](N)CSSC[C@@H](C(N)=O)NC(=O)[C@H](CCCNC(=N)N)NC(=O)[C@H](Cc2c[nH]cn2)NC(=O)[C@H](Cc2c[nH]cn2)NC(=O)CNC(=O)[C@H](C)NC(=O)[C@H](CC(=O)O)NC(=O)[C@H](CCC(N)=O)NC1=O [XIX] (H-CVVQDAGHHRC-NH2; disulfide 1-11) | 182
CC(C)[C@@H]1NC(=O)[C@H](C(C)C)NC(=O)[C@@H](N)CSSC[C@@H](C(N)=O)NC(=O)[C@H](Cc2c[nH]c3ccccc23)NC(=O)[C@H](CC(=O)O)NC(=O)[C@H](CCC(N)=O)NC1=O [XIII] (H-CVVQDWC-NH2; disulfide 1-7) | > 600
CC(C)[C@@H]1NC(=O)[C@H](C(C)C)NC(=O)[C@@H](N)CSSC[C@@H](C(N)=O)NC(=O)[C@H](C)NC(=O)[C@H](Cc2c[nH]cn2)NC(=O)[C@H](Cc2c[nH]cn2)NC(=O)CNC(=O)[C@H](Cc2c[nH]c3ccccc23)NC(=O)[C@H](CC(=O)O)NC(=O)[C@H](CCC(N)=O)NC1=O [XXIII] (H-CVVQDWGHHAC-NH2; disulfide 1-11) | 70
CC[C@H](C)[C@H](N)C(=O)N[C@@H](CSCC(N)=O)C(=O)N[C@H](C(=O)N[C@H](C(=O)N[C@@H](CCC(N)=O)C(=O)N[C@@H](CC(=O)O)C(=O)N[C@@H](Cc1c[nH]c2ccccc12)C(=O)NCC(=O)N[C@@H](Cc1c[nH]cn1)C(=O)N[C@@H](Cc1c[nH]cn1)C(=O)N[C@@H](CCCNC(=N)N)C(=O)N[C@@H](CSCC(N)=O)C(=O)N[C@H](C(N)=O)[C@@H](C)O)C(C)C)C(C)C [Peptide V] | > 300
C[C@@H](O)[C@H](NC(=O)[C@@H]1CSSC[C@H](N)C(=O)N[C@@H](CC(=O)O)C(=O)N[C@@H](Cc2c[nH]c3ccccc23)C(=O)NCC(=O)N[C@@H](Cc2c[nH]cn2)C(=O)N[C@@H](Cc2c[nH]cn2)C(=O)N[C@@H](CCCNC(=N)N)C(=O)N1)C(N)=O [X] (H-CDWGHHRCT-NH2; disulfide 1-8) | > 600
CC(C)[C@@H]1NC(=O)[C@@H](N)CSSC[C@@H](C(=O)N[C@H](C(N)=O)[C@@H](C)O)NC(=O)[C@H](CCCNC(=N)N)NC(=O)[C@H](Cc2c[nH]cn2)NC(=O)[C@H](Cc2c[nH]cn2)NC(=O)CNC(=O)[C@H](Cc2c[nH]c3ccccc23)NC(=O)[C@H](CC(=O)O)NC(=O)[C@H](CCC(N)=O)NC1=O [XII] (H-CVQDWGHHRCT-NH2; disulfide 1-10) | > 600
C[C@@H](O)[C@H](NC(=O)[C@@H]1CSSC[C@H](N)C(=O)NCC(=O)N[C@@H](Cc2c[nH]cn2)C(=O)N[C@@H](Cc2c[nH]cn2)C(=O)N[C@@H](CCCNC(=N)N)C(=O)N1)C(N)=O [VIII] (H-CGHHRCT-NH2; disulfide 1-6) | > 600
C[C@@H](O)[C@H](NC(=O)[C@@H]1CSSC[C@H](N)C(=O)N[C@@H](Cc2c[nH]cn2)C(=O)N[C@@H](Cc2c[nH]cn2)C(=O)N[C@@H](CCCNC(=N)N)C(=O)N1)C(N)=O [VII] (H-CHHRCT-NH2; disulfide 1-5) | > 600

Same assay, conditions: read-out: A[…] IC50

Molecule | IC50 [µM]
CC(C)[C@@H]1NC(=O)[C@H](C(C)C)NC(=O)[C@@H](N)CSSC[C@@H](C(N)=O)NC(=O)[C@H](CCCNC(=N)N)NC(=O)[C@H](Cc2c[nH]cn2)NC(=O)[C@H](Cc2c[nH]cn2)NC(=O)CNC(=O)[C@H](Cc2c[nH]c3ccccc23)NC(=O)[C@H](CC(=O)O)NC(=O)[C@H](CCC(N)=O)NC1=O [VI] (H-CVVQDWGHHRC-NH2; disulfide 1-11) | 33
CC(C)[C@@H]1NC(=O)[C@H](C(C)C)NC(=O)[C@@H](N)CSSC[C@@H](C(N)=O)NC(=O)[C@H](CCCNC(=N)N)NC(=O)[C@H](Cc2c[nH]cn2)NC(=O)[C@H](Cc2c[nH]cn2)NC(=O)[C@H](C)NC(=O)[C@H](Cc2c[nH]c3ccccc23)NC(=O)[C@H](CC(=O)O)NC(=O)[C@H](CCC(N)=O)NC1=O [XX] (H-CVVQDWAHHRC-NH2; disulfide 1-11) | > 1200
CC(C)[C@@H]1NC(=O)[C@H](C(C)C)NC(=O)[C@@H](N)CSSC[C@@H](C(N)=O)NC(=O)[C@H](CCCNC(=N)N)NC(=O)[C@H](Cc2c[nH]cn2)NC(=O)[C@H](Cc2c[nH]cn2)NC(=O)CNC(=O)[C@H](Cc2c[nH]c3ccccc23)NC(=O)[C@H](CC(=O)O)NC(=O)[C@H](C)NC1=O [XVII] (H-CVVADWGHHRC-NH2; disulfide 1-11) | 910
CC(C)[C@@H]1NC(=O)[C@H](C(C)C)NC(=O)[C@@H](N)CSSC[C@@H](C(N)=O)NC(=O)[C@H](CCCNC(=N)N)NC(=O)[C@H](Cc2c[nH]cn2)NC(=O)[C@H](C)NC(=O)CNC(=O)[C@H](Cc2c[nH]c3ccccc23)NC(=O)[C@H](CC(=O)O)NC(=O)[C@H](CCC(N)=O)NC1=O [XXI] (H-CVVQDWGAHRC-NH2; disulfide 1-11) | 15
CC(C)[C@@H]1NC(=O)[C@H](C)NC(=O)[C@@H](N)CSSC[C@@H](C(N)=O)NC(=O)[C@H](CCCNC(=N)N)NC(=O)[C@H](Cc2c[nH]cn2)NC(=O)[C@H](Cc2c[nH]cn2)NC(=O)CNC(=O)[C@H](Cc2c[nH]c3ccccc23)NC(=O)[C@H](CC(=O)O)NC(=O)[C@H](CCC(N)=O)NC1=O [XV] (H-CAVQDWGHHRC-NH2; disulfide 1-11) | 1200
CC(C)[C@@H]1NC(=O)[C@H](C(C)C)NC(=O)[C@@H](N)CSSC[C@@H](C(N)=O)NC(=O)[C@H](CCCNC(=N)N)NC(=O)[C@H](C)NC(=O)[C@H](Cc2c[nH]cn2)NC(=O)CNC(=O)[C@H](Cc2c[nH]c3ccccc23)NC(=O)[C@H](CC(=O)O)NC(=O)[C@H](CCC(N)=O)NC1=O [XXII] (H-CVVQDWGHARC-NH2; disulfide 1-11) | 74
CC(C)[C@@H]1NC(=O)[C@@H](N)CSSC[C@@H](C(N)=O)NC(=O)[C@H](CCCNC(=N)N)NC(=O)[C@H](Cc2c[nH]cn2)NC(=O)[C@H](Cc2c[nH]cn2)NC(=O)CNC(=O)[C@H](Cc2c[nH]c3ccccc23)NC(=O)[C@H](CC(=O)O)NC(=O)[C@H](CCC(N)=O)NC(=O)[C@H](C)NC1=O [XVI] (H-CVAQDWGHHRC-NH2; disulfide 1-11) | 67
CC(C)[C@@H]1NC(=O)[C@H](C(C)C)NC(=O)[C@@H](N)CSSC[C@@H](C(N)=O)NC(=O)[C@H](CCCNC(=N)N)NC(=O)[C@H](Cc2c[nH]cn2)NC(=O)[C@H](Cc2c[nH]cn2)NC(=O)CNC(=O)[C@H](Cc2c[nH]c3ccccc23)NC(=O)[C@H](C)NC(=O)[C@H](CCC(N)=O)NC1=O [XVIII] (H-CVVQAWGHHRC-NH2; disulfide 1-11) | 257
